From US6517853B1, “Process for preparing a crystal suspension” (Syngenta Limited, priority 1999, dated 2003)
Each block holds one molecule with its values, some of them ahead of it.

How the values were obtained:
[1] = ΔH/RT value (heat of fusion by differential scanning calorimetry divided by R and melting point in K); format: physicochemical
Method: The value ΔH/RT is a well understood expression which means the enthalpy (heat) of fusion of a compound (ΔH in kJmol^−1) at the normal melting point of the compound divided by the molar gas constant (R, where R is 8.31451 Jmol^−1K^−1) and the melting point of the compound measured on the absolute or Kelvin scale (in °K). Thus, for example, the ΔH/RT value of octadecane, which has a melting point of 28.2° C. and a heat of fusion of 61.39 kJmol^−1 (see the CRC Handbook of Chemistry and Physics, [1996-1997], 77th Edition. 6-138) is calculated as follows: […]
The heat of fusion of a compound (ΔH) may be measured by differential scanning calorimetry. A suitable method is described by McNaughton, J. L. and Mortimer, C. T. in IRS: Physical Chemistry Series 2, Butterworth, London 1975, Vol 10; subsequently reprinted by Perkin-Elmer Corpn. Norwalk, Conn., USA.

[2] = Optical microscope image analysis of droplet / crystal size in aqueous emulsion or dispersion; format: physicochemical; conditions: for crystal size immediately after sonication: all four samples (6 and 2 lhr^−1); for droplet size of hot emulsion: before cooling
Source text: (§1) A small sample of the cooled sonicated emulsion was transferred using a capillary tube to a microscope slide and was protected with a glass cover slip. The slide was viewed using transmitted light or cross-polarised light (Zeiss microscope) and an image recorded on a calibrated micrograph. The micrograph provides information as to the size (μm), shape and degree of crystallinity of the droplets or crystals.

[3] = Storage of crystalline dispersion, Ostwald ripening (crystal growth) under optical microscope; format: physicochemical; conditions: 1% w/w sonicated dispersion, after one week
Source text: as §1
The number of spheres/particles in the final dispersion was similar to the number of droplets in the original hot emulsion which indicated nucleation had occurred preferentially in the droplets.

[4] = CRC Handbook of Chemistry and Physics, 77th Edition; cited from earlier work
[5] = enthalpy of fusion at normal melting point / (R × melting point in K)
[6] = 1% w/w aqueous dispersion, cooled to 20° C., continuous sonication 500 w
[7] = 1% w/w in aqueous Mowiol 18-88, emulsified five minutes by high shear mixer
[8] = 1% w/w aqueous dispersion, sonicated, higher flow (6 lhr^−1)

Molecule: CCCCNC(=O)OCC#CI [IPBC, 3-iodo-2-propynyl butyl carbamate]
ΔH/RT [1, 5]: 9.25 | crystal size immediately after sonication [2, 6]: < 10 μm | droplet size of hot emulsion [2, 7]: ≤ 10 μm | Ostwald ripening (crystal growth) of sonicated dispersion [3]: no sign of “Ostwäld” ripening

ΔH/RT [1, 5]: 1.15 | size of plates after sonication [2, 8]: 30 μm | size of small needles after sonication [2, 8]: 2 μm
Molecule: C=C1C2CC[C@@H](C2)C1(C)C [camphene, (1S)-2,2-dimethyl-3-methylenebicyclo[2.2.1]heptane]

ΔH/RT ([1]; calculated from CRC Handbook melting point 28.2° C. and heat of fusion): 24.5
Molecule: CCCCCCCCCCCCCCCCCC [octadecane]
heat of fusion [4]: 61.39 kJmol^−1

Molecule: α-methyl-4-(2-methylpropyl)benzene acetic acid [ibuprofen]
ΔH/RT [1, 5]: 9.33 | crystal size immediately after sonication [2, 6]: < 10 μm | droplet size of hot emulsion [2, 7]: ≤ 10 μm | crystal size (twinned crystals) without sonication ([2]; 2% aqueous dispersion, cooled without sonication, equilibrated for 18 hrs): 100-200 μm | crystal size (crystalline spheres) immediately after sonication ([2]; 20% w/w aqueous dispersion, cooled to 20° C., continuous sonication 500 w, all four samples): < 10 μm | droplet size of hot emulsion ([2]; 20% w/w in aqueous Mowiol 18-88, emulsified five minutes by high shear mixer): ≤ 10 μm
